# Tests used:
# Type in all cases: cell-based
# [1] = system: HCV genotype 1b (HCV-1b) replicon cells; test: HCV genotype 1b replicon cell assay (luciferase, Bright-Glo); conditions: Hepatitis C virus, 72 h, HCV-1b (Con1) replicon cells, 3 days
# Procedure: (§1) The EC50 and CC50 values of anti-HCV compounds were determined by HCV genotype 1a (HCV-1a) and 1b (HCV-1b) stable transfected replication (replicon) cells. The source of genotype 1a replicon is H77 clones containing K1691R, K2040R and S2204I adaptive mutations. The source of genotype 1b replicon is Con1 clones containing E1202G, T1280I and K1846T adaptive mutations.
# (§2) HCV 1a (HCV-1a) and 1b (HCV-1b) gene subtype replicon system contains the related HCV gene subtype non-structural protein gene, G418 resistance gene NEO and luciferase gene, which results in that HCV related protein and luciferase can be stably expressed in cells. By detecting the level of expression of luciferase gene, the level of HCV replication can be determined. Therefore, the system is used as a model for screening the activity of anti-HCV compound in vitro.
# (§3) The compound powder was dissolved in 100% DMSO. Then the compound was diluted 5 times with 6 points, and added into the cell plate with Echo liquid handler. Ensure the final concentration of DMSO was 0.5%. Each compound was tested in duplicate.
# (§4) 4) Diluting cells to 8×10^4 cells/mL with the culture medium, adding the diluted cells into the compound-containing 96-well plate (Greiner, Cat. #655090) (100 μL/well, 8000 cells/well) with automatic liquid separator (Thermo Scientific). Then place into a 37° C., 5% CO2 incubator for 3 days. Cell control well: no compound, only containing 0.5% DMSO.
# (§5) 6) Then adding luciferase substrate Bright-Glo, after incubation for 5 minutes, detecting the luciferase activity by microplate reader Envison (wavelength>700 nm); analyzing the anti-HCV inhibitory activity of the compounds according to luminescence data, which was used to calculate EC50 values.
# (§6) The EC50 or CC50 values were obtained by nonlinear fitting regression on inhibition percentage (inh %) data with GraphPad Prism software.
# [2] = system: HCV genotype 1a (HCV-1a) replicon cells; test: HCV genotype 1a replicon cell assay (luciferase, Bright-Glo); conditions: Hepatitis C virus, 72 h, HCV-1a (H77) replicon cells, 3 days
# Procedure: as §1, §2, §3, §4, §5, §6
# [3] = Cytotoxicity in HCV replicon cells (Cell Titer-fluor)
# Procedure: as §1, §3, §4
# 5) Adding fluorescence substrate Cell Titer-fluor to the cell well, after incubation for 30 minutes, detecting the signal by microplate reader Envison (Ex at 405 nm and read at 515 nm). The effect of the compounds on the cytotoxicity of HCV replicon cells was analyzed according to the fluorescence data, which was used to calculate the CC50 values.
# as §6
SMILES,EC50 [1] [nM],EC50 [2] [nM],CC50 at 3 days [3] [nM]
CC1(O)CN(C(=O)C2CCN(C(=O)c3oc4c(C(F)(F)F)cc(C5CC5)cc4c3Cl)CC2)C1 [YD_0345],1000 to 5000,100 to 1000,> 3000
O=C(c1oc2c(C(F)(F)F)cc(C3CC3)cc2c1Cl)N1CCC(C(=O)N2CCC2)CC1 [YD_0313],0.1 to 100,0.1 to 100,> 3000
CC(C)c1cc(C(F)(F)F)c2oc(C(=O)N3CCN(N4CCOC4=O)CC3)c(Cl)c2c1 [YD_0215],0.1 to 100,0.1 to 100,> 3000
O=C(c1oc2c(C(F)(F)F)cc(C3CC3)cc2c1Cl)N1CCN(C23CC(C2)C3)C(=O)C1 [YD_0253],0.1 to 100,100 to 1000,> 3000
O=C1CN(N2CCN(C(=O)c3oc4c(C(F)(F)F)cc(C5CC5)cc4c3Cl)CC2=O)C(=O)N1 [YD_0272],100 to 1000,100 to 1000,> 3000
O=C1NN(C(=O)c2nc3c(C(F)(F)F)cc(C4CC4)cn3c2Cl)CCN1CC(F)F [YA_0358],100 to 1000,100 to 1000,> 3000
CC1CN(C(=O)C2CCN(C(=O)c3oc4c(C(F)(F)F)cc(C5CC5)cc4c3Cl)CC2)C1 [YD_0350],100 to 1000,100 to 1000,> 3000
N#CC1CN(C(=O)C2CCN(C(=O)c3oc4c(C(F)(F)F)cc(C5CC5)cc4c3Cl)CC2)C1 [YD_0352],1000 to 5000,100 to 1000,> 3000
CC(C)N1CCN(C(=O)c2oc3c(C(F)(F)F)cc(C4CC4)cc3c2Cl)NC1=O [YD_0374],0.1 to 100,0.1 to 100,> 3000
O=C(c1oc2c(C(F)(F)F)cc(C3CC3)cc2c1Cl)N1CCN([C@H]2CC[C@H](O)CC2)C(=O)N1 [YD_0365],0.1 to 100,0.1 to 100,> 3000
CN1CCN(C(=O)C2CCN(C(=O)c3oc4c(C(F)(F)F)cc(C5CC5)cc4c3Cl)CC2)CC1 [YD_0305],1000 to 5000,100 to 1000,> 3000
O=C(c1nc2c(C(F)(F)F)cc(C3CC3)cn2c1Cl)N1CCN([C@H]2CC[C@H](O)CC2)C(=O)N1 [YA_0363],0.1 to 100,0.1 to 100,> 3000
CC1(C(=O)N2CC(O)C2)CCN(C(=O)c2oc3c(C(F)(F)F)cc(C4CC4)cc3c2Cl)CC1 [YD_0318],1000 to 5000,100 to 1000,> 3000
CC1CNCCN1C(=O)C1CCN(C(=O)c2oc3c(C(F)(F)F)cc(C4CC4)cc3c2Cl)CC1 (stereo not drawn) [YD_0322],100 to 1000,100 to 1000,> 3000
O=C(c1oc2c(C(F)(F)F)cc(C3CC3)cc2c1Cl)N1CCC(C(=O)N2CC(CO)C2)CC1 [YD_0355],1000 to 5000,100 to 1000,> 3000
O=C(c1oc2c(C(F)(F)F)cc(C3CC3)cc2c1Cl)N1CCN(C2CCCC2)C(=O)N1 [YD_0357],0.1 to 100,0.1 to 100,> 3000
CN(C)C(=O)C1(C)CCN(C(=O)c2oc3c(C(F)(F)F)cc(C4CC4)cc3c2Cl)CC1 [YD_0317],1000 to 5000,100 to 1000,> 3000
CCCc1cc(C(F)(F)F)c2oc(C(=O)NC34CCC(c5nnc(C)o5)(CC3)CC4)c(Cl)c2c1 [YD_0060],100 to 1000,–,> 3000
O=C(c1nc2c(C(F)(F)F)cc(C3CC3)cn2c1Cl)N1CCN(C2CCCC2)C(=O)N1 [YA_0338],0.1 to 100,0.1 to 100,> 3000
CCOC(=O)NN1CCN(C(=O)c2oc3c(C(F)(F)F)cc(C4CC4)cc3c2Cl)CC1 [YD_0312],100 to 1000,100 to 1000,> 3000
O=C1CN(N2CCN(C(=O)c3oc4c(C(F)(F)F)cc(C5CC5)cc4c3Cl)CC2)C(=O)N1 [YD_0331],0.1 to 100,0.1 to 100,> 3000
O=C(c1oc2c(C(F)(F)F)cc(C3CC3)cc2c1Cl)N1CCC(C(=O)N2CC3CC3C2)CC1 (stereo not drawn) [YD_0324],0.1 to 100,0.1 to 100,> 3000
CCCc1cc(C(F)(F)F)c2oc(C(=O)N3CCN(N4CCOC4=O)CC3)c(Cl)c2c1 [YD_0216],0.1 to 100,0.1 to 100,> 3000
CC(C)c1cc(C(F)(F)F)c2oc(C(=O)N3CCN(C4CCC(O)CC4)C(=O)C3)cc2c1 (stereo not drawn) [YD_0044],0.1 to 100,–,> 3000

SMILES,EC50 [1] [nM],EC50 [2] [nM],CC50 at 3 days [3] [nM]
CC(C)N1CCN(C(=O)c2nc3c(C(F)(F)F)cc(C4CC4)cn3c2Cl)NC1=O [YA_0360],0.1 to 100,0.1 to 100,> 3000
O=C(c1nc2c(C(F)(F)F)cc(C3CC3)cn2c1Cl)N1CCN(C2CC2)C(=O)N1 [YA_0362],–,–,> 3000
O=C(c1oc2c(C(F)F)cc(C3CC3)cc2c1Cl)N1CCN(N2CCOC2=O)CC1 [YD_0278],0.1 to 100,0.1 to 100,> 3000
O=C(c1nn2c(C(F)(F)F)cc(C3CC3)cc2c1Cl)N1CCN(C2CCCC2)C(=O)N1 [YH_0369],1000 to 5000,100 to 1000,> 3000
O=C1NN(C(=O)c2nc3c(C(F)(F)F)cc(C4CC4)cn3c2Cl)CCN1CC(F)(F)F [YA_0361],–,–,> 3000
Cc1nnc(C23CCC(NC(=O)c4oc5c(C(F)(F)F)cc(C6CC6)cc5c4Cl)(CC2)CC3)o1 [YD_0056],1000 to 5000,–,> 3000
O=C(c1oc2c(C(F)(F)F)cc(C3CC3)cc2c1Cl)N1CCN(C23CCC(CC2)CC3)C(=O)C1 [YD_0280],100 to 1000,100 to 1000,> 3000
O=C(c1nc2c(C(F)(F)F)cc(C3CC3)cn2c1Cl)N1CCN(C2CC(F)(F)C2)C(=O)N1 [YA_0367],0.1 to 100,0.1 to 100,> 3000
CC(C)N(C)C(=O)C1CCN(C(=O)c2oc3c(C(F)(F)F)cc(C4CC4)cc3c2Cl)CC1 [YD_0302],1000 to 5000,100 to 1000,> 3000
COC1(C)CN(C(=O)C2CCN(C(=O)c3oc4c(C(F)(F)F)cc(C5CC5)cc4c3Cl)CC2)C1 [YD_0344],1000 to 5000,100 to 1000,> 3000
O=C(c1oc2c(C(F)(F)F)cc(C3CC3)cc2c1Cl)N1CCC(C(=O)N2CC(F)C2)CC1 [YD_0342],0.1 to 100,0.1 to 100,> 3000
O=C(c1oc2c(C(F)(F)F)cc(C3CC3)cc2c1Cl)N1CCC(=O)N(C2CCCC2)CC1 [YD_0330],0.1 to 100,100 to 1000,> 3000
O=C(c1oc2c(C(F)(F)F)cc(C3CC3)cc2c1Cl)N1CCC(C(=O)N2CC(O)C2)CC1 [YD_0356],0.1 to 100,0.1 to 100,> 3000
O=C(NC12CCC(c3nnco3)(CC1)CC2)c1oc2c(C(F)(F)F)cc(C3CC3)cc2c1Cl [YD_0122],100 to 1000,0.1 to 100,> 3000
COC1CN(C(=O)C2CCN(C(=O)c3oc4c(C(F)(F)F)cc(C5CC5)cc4c3Cl)CC2)C1 [YD_0340],100 to 1000,100 to 1000,> 3000
CC(C)N1CCN(C(=O)c2nn3c(C(F)(F)F)cc(C4CC4)cc3c2Cl)NC1=O [YH_0373],0.1 to 100,0.1 to 100,> 3000
CN(C)C1CN(C(=O)C2CCN(C(=O)c3oc4c(C(F)(F)F)cc(C5CC5)cc4c3Cl)CC2)C1 [YD_0343],1000 to 5000,100 to 1000,> 3000
CC1CN(C(=O)C2CCN(C(=O)c3oc4c(C(F)(F)F)cc(C5CC5)cc4c3Cl)CC2)CCO1 (stereo not drawn) [YD_0323],100 to 1000,100 to 1000,> 3000
Cc1nnc(C23CCC(NC(=O)c4oc5c(C(F)(F)F)cc(C6CC6)cc5c4Br)(CC2)CC3)o1 [YD_0057],100 to 1000,–,> 3000
O=C(c1oc2c(C(F)(F)F)cc(C3CC3)cc2c1Cl)N1CCN(N2CCOC2=O)CC1 [YD_0214],0.1 to 100,0.1 to 100,> 3000
Cc1nnc(C23CCC(NC(=O)c4oc5c(C(F)(F)F)cc(C6CC6)cc5c4C)(CC2)CC3)o1 [YD_0058],100 to 1000,–,> 3000
CN(C)C(=O)C1CCN(C(=O)c2oc3c(C(F)(F)F)cc(C4CC4)cc3c2Cl)CC1 [YD_0273],0.1 to 100,0.1 to 100,> 3000
Cc1nnc(C23CCC(NC(=O)c4cc5cc(C(C)C)cc(C(F)(F)F)c5o4)(CC2)CC3)o1 [YD_0019],100 to 1000,–,> 3000
O=C(c1nc2c(C(F)(F)F)cc(C3CC3)cn2c1Cl)N1CCN([C@H]2C[C@H](O)C2)C(=O)N1 [YA_0359],–,–,> 3000
